Measured values from the supplement of paper PMC10307832.

Assays:
Experiment in all cases: relative viability (nuclei count vs DMSO), 5 days (fraction); higher = more cells survive
[1] = compound: CCN1C(=O)C2=CC(=C(N=C2N(C1=O)C3CC3)N)C(=O)N + Nc1ncn([C@H]2C[C@H](O)[C@@H](CO)O2)c(=O)n1 [Decitabine] (partner 2 µM)
How it was run: (§1)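 Lung cancer cell lines in 1536-well plates were dosed by pin tool the day after seeding, either with one drug alone or with a fixed anchor-drug dose plus five library-drug doses (not always all listed) in √10 steps. After 5 days, cells were fixed and their nuclei stained in one step (final 0.05% Triton X-100, 1% formaldehyde, 1 ug/ml Hoechst), then counted on 4× images. Relative viability is the nuclei count in treated wells divided by that in vehicle wells. Values are medians of duplicate plates.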

[2] = compound: CCN1C(=O)C2=CC(=C(N=C2N(C1=O)C3CC3)N)C(=O)N + CCNC(=O)c1noc(-c2cc(C(C)C)c(O)cc2O)c1-c1ccc(CN2CCOCC2)cc1 [Luminespib] (partner 0.01 µM)
How it was run: as §1

[3] = compound: CCN1C(=O)C2=CC(=C(N=C2N(C1=O)C3CC3)N)C(=O)N + CC(=O)Nc1cccc(-n2c(=O)n(C3CC3)c(=O)c3c(Nc4ccc(I)cc4F)n(C)c(=O)c(C)c32)c1 [Trametinib] (partner 0.02 µM)
How it was run: as §1

[4] = compound: CCN1C(=O)C2=CC(=C(N=C2N(C1=O)C3CC3)N)C(=O)N + CC1(C)CCC(c2ccc(Cl)cc2)=C(CN2CCN(c3ccc(C(=O)NS(=O)(=O)c4ccc(N[C@H](CCN5CCOCC5)CSc5ccccc5)c(S(=O)(=O)C(F)(F)F)c4)cc3)CC2)C1 [Navitoclax] (partner 0.5 µM)
How it was run: as §1

[5] = compound: CCN1C(=O)C2=CC(=C(N=C2N(C1=O)C3CC3)N)C(=O)N + NC(=O)Nc1cc(-c2cccc(F)c2)sc1C(=O)N[C@H]1CCCNC1 [AZD7762] (partner 0.2 µM)
How it was run: as §1

Cell Line	relative viability ([1]; first compound 0.253 µM)	relative viability ([1]; first compound 0.8 µM)	relative viability ([1]; first compound 2.53 µM)	relative viability ([1]; first compound 8 µM)	relative viability ([2]; first compound 0.253 µM)	relative viability ([2]; first compound 0.8 µM)	relative viability ([2]; first compound 2.53 µM)	relative viability ([2]; first compound 8 µM)	relative viability ([3]; first compound 0.253 µM)	relative viability ([3]; first compound 0.8 µM)	relative viability ([3]; first compound 2.53 µM)	relative viability ([3]; first compound 8 µM)	relative viability ([4]; first compound 0.253 µM)	relative viability ([4]; first compound 8 µM)	relative viability ([5]; first compound 0.253 µM)	relative viability ([5]; first compound 0.8 µM)	relative viability ([5]; first compound 2.53 µM)	relative viability ([5]; first compound 8 µM)	relative viability ([4]; first compound 0.8 µM)	relative viability ([4]; first compound 2.53 µM)
LCLC-97TM1	0.207	0.225	0.244	0.262	0.678	0.845	0.766	0.799	0.194	0.217	0.203	0.182	0.431	0.53	0.242	0.155	0.267	0.175		
LK-2	0.249	0.31	0.317	0.277	0.181	0.202	0.175	0.199	0.756	0.715	0.727	0.795	0.934	1.06	0.516	0.348	0.359	0.608	0.937	0.976
LOU-NH91	0.849	0.781	0.768	0.798	0.283	0.452	0.379	0.349	0.791	0.76	0.772	0.772	0.656	0.689	0.786	0.73	0.725	0.749	0.68	0.701
LU99A	0.765	0.952	0.873	0.828	0.249	0.259	0.285	0.234	0.504	0.545	0.56	0.549	0.778	0.875	0.356	0.377	0.304	0.348	0.741	0.747
LXF-289	0.345	0.37	0.346	0.336	0.693	0.73	0.661	0.784	0.636	0.658	0.661	0.665	0.93	0.95	1.12	1.17	1.08	1.07	0.951	1.01
NCI-H23	0.315	0.305	0.289	0.32	0.195	0.203	0.228	0.214	0.385	0.416	0.365	0.391	0.772	0.769	0.272	0.208	0.284	0.2	0.924	0.659
NCI-H322M	0.697	0.728	0.673	0.719	0.724	0.934	0.886	1	0.522	0.457	0.469	0.586	1.06	1.13	0.611	0.548	0.551	0.599	1.12	1.14
NCI-H441	0.305	0.244	0.265	0.258	0.287	0.34	0.419	0.35	0.508	0.441	0.516	0.532	0.768	0.649	0.892	1.29	1.2	1.1	0.482	0.64
